Measured values reported in patent US10172835B2, “Anticancer agent composition” (J-Pharma Co., Ltd., priority 2014, dated 2019).
Counter-ions that a name gives are not always drawn.

Key:
[1] = test system: HT-29 cell derived from human large intestine cancer; test: Tumor growth in nude mouse inoculated subcutaneously with HT-29 cells; assay type: in vivo
Procedure: A HT-29 cell was inoculated subcutaneously into a mouse, and the transition of the size of the tumor lump was measured with time from the day on which the tumor has grown to a certain size, when each of COM-JP and 5-FU was used alone or in combination.

[2] = test system: KO99L cells (tPTEN−/− tumor cell line); test: WST-1 cell viability assay on KO99L cells; assay type: cell-based, murine; details: Mus musculus, KO99L cells, 48 h
Procedure: Two different assays were employed: i) In a 96-well plate format, cells (4.0±0.1×10^4 per well; 100 μL) were incubated with effectors (48 h, 37° C.; n=4 per experiment) and then WST-1 reagent (10 μL; Roche Diagnostics) added to each well of 96-well plates, incubated, and the formazan production was measured at 490 nm; and ii) cells (2.0±0.1×10^4 per well; 100 μL) were incubated with effectors (48 h, 37° C.; n=4 per experiment) and then bromodeoxyuridine reagent (10 μL/well; Roche Diagnostics) was added to each well and incubated (8 h, 37° C.). The cells were then fixed, denatured and incubated with anti-BrdU-conjugated with peroxidase (POD) antibody (100 μL/well). Colorimetric substrate (TMB: tetramethyl-benzidine; 100 μL/well) was added and BrdU incorporation quantified via optical density measurement (450 nm) which corresponds to DNA synthesis and proliferating cells.

[3] = test system: HT-29 cell derived from human large intestine cancer; test: Tumor growth in nude mouse SOI model (HT-29 grafted onto wall of large intestine); assay type: in vivo
Text: […] was expressed in a HT-29 cell derived from human large intestine cancer, and which was grafted onto the wall of large intestine of a mouse to produce a metamouse. According to this, the quantity of the size of the tumor could be determined with time with emission intensity. In FIG. 16, the size of tumor in each treatment group was shown with a bar graph. Group 1 is a control group, Groups 2 to 4 are a group in which COM-JP was intraperitoneally administered alone at 3.1, 12.5, and 50 mg/kg weight/day every day for 4 weeks, Group 5 is a group in which CDDP was intraperitoneally administered alone at 2.5 mg/kg/day three times on day 0, day 6, and day 13, Groups 6 to 8 are a group in which Groups 2 to 4 and Group 5 were combined to be administered in combination, and Group 9 is a group in which COM-JP was orally administered at 300 mg/kg/day every day for 4 weeks.

mTORC1 / Akt activation = test: Western blot of S6RP, 4EBP1 and Akt phosphorylation, KO99L cells; assay type: cell-based, murine; details: 2.0-24 h; COMPOUND-JP 10.0 μM; MK-2206 5.0 μM; KU0063794 5.0 μM; rapamycin 10.0 nM; L-Asp, Erw 2.5 units/ml; velcade at 24 h
c-myc = test: Western blot of c-myc levels, KO99L cells; assay type: cell-based, murine; details: COMPOUND-JP 10.0 μM 2.0-24 h; Velcade 8 nM 24 h; KU0063794 10.0 μM; MK-2206 10.0 μM; rapamycin 100 nM
Procedure: (§1) Cell extracts were prepared using a cell lysis buffer (50 mM HEPES, pH 7.4, 150 mM NaCl, 20 mM EDTA, 100 mM NaF, 10 mM Na3VO4, 0.5% nonyl phenoxypolyethoxylethanol (NP40) supplemented with a cocktail of protease inhibitors. After SDS-PAGE separation and transfer to nitrocellulose immunoblotting was performed using the following antibodies against: Akt (Cell Signaling Technologies, #9272), CHOP (#2895), cleaved caspase 3 (#9664), c-Myc (#9402), eIF2a (#9721), 4EBP1 (#9644), LC3A/B (#12741), PARP (#9542), pJnk (T183/Y185) (#9251), pSer235-236-S6RP (#4856), pSer473-Akt (#9271), pSer65-4EBP1 (#9451) and S6RP (#2217); Bax (Sigma-Aldrich, B8429); PUMA (Abcam, ab54288); Bak (Millipore, 06536); ATF4 (Santa Cruz Biotechnologies, sc200), GADD34 (sc8327), Hsp60 (sc-1722), Hsp90 (sc-13119) and XBP1 (sc-7160); ATF6 (Imgenex, IMG-273).

CHOP = test: Western blot of CHOP protein levels, KO99L cells; assay type: cell-based, murine; details: for CHOP induction: FIG. 5B, COMPOUND-JP 5.0 and 10.0 μM, L-Asp 2.5 units/ml, rapamycin 10.0 nM, MK-2206 10.0 μM, KU0063794 10.0 μM; for CHOP expression, time course: FIG. 5A, COMPOUND-JP 10.0 μM, L-Asp, Erw 2.5 units/ml, 2.0-24 h
Procedure: as §1

KO99L cells [4] = test: Combination studies with COMPOUND-JP, WST-1 viability, Chou-Talalay combination index; assay type: cell-based, murine; details: 48 h, suboptimal concentrations, in combination with COMPOUND-JP
Procedure: Combinations were analyzed by ANOVA followed by Tukey's Multiple comparison test to determine significance between experimental groups. The synergism between drugs was analyzed using the Chou-Talalay method. […] P-value <0.05 was accepted as statistically significant (*:p<0.05; **:p<0.01; ***:p<0.001). Analyses were performed using the GraphPAd Prism 3.0 software.

KO99L cells [5] = test: Annexin-V / DAPI apoptosis assay, KO99L cells; assay type: cell-based, murine; details: 20.0 μM
Procedure: Apoptosis assessment was performed by measuring phosphatidyl-serine membrane redistribution via annexin-V-FITC (Invitrogen). Cells (5.0±0.1×10^5 per well; 2.0 mL) were incubated with effectors, and re-suspended in staining solution (110 μL; Annexin-V ( 1/10) and incubated in the dark (15 min, RT). […] Basal apoptosis and necrosis were determined on control untreated cells.

[6] = test system: 44As3-11 cell derived from human scirrhous stomach cancer; test: MTT, single agents and combination with COM-JP, 44As3-11 cells; assay type: cell-based
Procedure: (§2) Two kind of cancer cells of a 44As3-11 cell derived from human scirrhous stomach cancer and a Panc-1 cell derived from human pancreatic cancer were cultured in the presence or absence of COM-JP, to which GEM and Pac was added on day 2, and the resultant mixture was continued to be cultured for 2 hours. Subsequently, the medium was replaced with a new medium, and the culture was performed in the presence or absence of COM-JP for 2 days more. Finally, the cells were collected, and the quantity of survival activity of the cells was determined by a MTT method. In each experiment, three cases of the group under the same conditions were measured, and the average value and the standard error, and the p-value of significance test were shown in the diagram.

[7] = test system: Panc-1 cell derived from human pancreatic cancer; test: MTT, single agents and combination with COM-JP, Panc-1 cells; assay type: cell-based
Procedure: as §2

O=c1[nH]cc(F)c(=O)[nH]1 [5-FU, 5-fluorouracil]
combined effect with COM-JP on tumor growth ([1]; COM-JP and 5-FU in combination): additive
increase of the tumor, single administration ([1]; compared with untreated control group): more significant decrease

NC1(C(=O)O)CC2CCC1C2 (centres unmarked) [BCH, 2-Aminobicyclo-(2,2,1)-heptane-2-carboxylic acid, reference compound]
viability at 10000 µM ([2]; 10.0 mM): 30%

[NH2][Pt]([NH2])([Cl])[Cl] [CDDP, cisplatin, reference compound]
efficacy on tumor growth, single administration ([3]; COM-JP i.p. 3.1, 12.5, 50 mg/kg/day 4 weeks, CDDP i.p. 2.5 mg/kg/day day 0, 6, 13): not recognized
efficacy of combination with COM-JP on tumor growth ([3]; Group 8: COM-JP 50 mg/kg/day i.p. plus CDDP 2.5 mg/kg/day): synergistic effect

CC(C)C[C@@H](N)C(=O)O [D-Leucine, D-leucine, reference compound]
viability at 30000 µM ([2]; 30.0 mM): 60%

COc1ccc(-c2ccc3c(N4CCOCC4)nc(N4C[C@@H](C)O[C@@H](C)C4)nc3n2)cc1CO [KU0063794, rel-5-[2-[(2R,6S)-2,6-dimethyl-4-morpholinyl]-4-(4-morpholinyl)pyrido[2,3-d]pyrimidin-7-yl]-2-methoxybenzenemethanol, reference compound]
4EBP1 phosphorylation (mTORC1 / Akt activation): completely block
Akt phosphorylation (serine 473) / activation (mTORC1 / Akt activation): completely block
S6RP phosphorylation (mTORC1 activation) (mTORC1 / Akt activation): completely block
c-myc protein level (c-myc): slightly influenced the two lower bands
CHOP induction (CHOP): did not result in CHOP induction
combination effect with COMPOUND-JP on metabolic activity/cell survival (Combination Index) (KO99L cells [4]): less efficient

NC1(c2ccc(-c3nc4ccn5c(=O)[nH]nc5c4cc3-c3ccccc3)cc2)CCC1 [MK-2206, reference compound]
4EBP1 phosphorylation (mTORC1 / Akt activation): completely block
Akt phosphorylation (serine 473) / activation (mTORC1 / Akt activation): completely block
S6RP phosphorylation (mTORC1 activation) (mTORC1 / Akt activation): completely block
c-myc protein level (c-myc): dramatic disappearance of all three c-myc isoforms
CHOP induction (CHOP): did not result in CHOP induction

CC(C)[C@H](NC(=O)c1ccc2ccccc2n1)C(=O)N[C@@H](CC(=O)O)C(=O)COc1c(F)cccc1F [QvD-OPH, reference compound]
quantity of apoptotic cells when co-administered with COMPOUND-JP (KO99L cells [5]): markedly decreased the quantity of apoptotic cells

COc1cccc2c1C(=O)c1c(O)c3c(c(O)c1C2=O)C[C@@](O)(C(=O)CO)C[C@@H]3O[C@H]1C[C@H](N)[C@H](O)[C@H](C)O1 [doxorubicin, doxorubicin hydrochloride]
combination effect with COMPOUND-JP on metabolic activity/cell survival (Combination Index) (KO99L cells [4]): synergy

Nc1ccn([C@@H]2O[C@H](CO)[C@@H](O)C2(F)F)c(=O)n1 [gemstabine, gemcitabine]
inhibitory effect of combination with COM-JP (15 μM) [6]: additive effect
proliferation activity, agent used alone for 2 hours [6]: decreased in a dose-dependent manner
inhibitory effect of combination with COM-JP (15 μM) [7]: additive effect
proliferation activity, agent used alone for 2 hours [7]: decreased in a dose-dependent manner
relative inhibitory effect of single agents [7]: extremely small

CC(=O)O[C@H]1C(=O)[C@@]2(C)[C@H]([C@H](OC(=O)c3ccccc3)[C@]3(O)C[C@H](OC(=O)[C@H](O)[C@@H](NC(=O)c4ccccc4)c4ccccc4)C(C)=C1C3(C)C)[C@]1(OC(C)=O)CO[C@@H]1C[C@@H]2O [paclitaxel]
inhibitory effect of combination with COM-JP (15 μM) [6]: additive effect
proliferation activity, agent used alone for 2 hours [6]: decreased in a dose-dependent manner
relative inhibitory effect of single agents [6]: stronger than that of gemstabine
inhibitory effect of combination with COM-JP (15 μM) [7]: additive effect
proliferation activity, agent used alone for 2 hours [7]: decreased in a dose-dependent manner
relative inhibitory effect of single agents [7]: stronger than that of gemstabine

CC(C)C[C@H](NC(=O)[C@H](Cc1ccccc1)NC(=O)c1cnccn1)B(O)O [velcade, bortezomib, reference compound]
4EBP1 phosphorylation (mTORC1 / Akt activation): completely abolished
Akt phosphorylation (serine 473) / activation (mTORC1 / Akt activation): completely abolished
S6RP phosphorylation (mTORC1 activation) (mTORC1 / Akt activation): completely abolished
c-myc protein level (c-myc): Analogous observations
CHOP induction (CHOP): strongly induced

B1: Erw: enzyme that can degrade extracellular asparagine, with higher glutaminase activity (protein, UniProt P06608 22-348, looked up)
L-asparaginase: ADKLPNIVILATGGTIAGSAATGTQTTGYKAGALGVDTLINAVPEVKKLANVKGEQFSNMASENMTGDVVLKLSQRVNELLARDDVDGVVITHGTDTVEESAYFLHLTVKSDKPVVFVAAMRPATAISADGPMNLLEAVRVAGDKQSRGRGVMVVLNDRIGSARYITKTNASTLDTFKANEEGYLGVIIGNRIYYQNRIDKLHTTRSVFDVRGLTSLPKVDILYGYQDDPEYLYDAAIQHGVKGIVYAGMGAGSVSVRGIAGMRKAMEKGVVVIRSTRTGNGIVPPDEELPGLVSDSLNPAHARILLMLALTRTSDPKVIQEYFHTY
4EBP1 phosphorylation (mTORC1 / Akt activation): altered 4EBP1 phosphorylation
Akt phosphorylation (serine 473) / activation (mTORC1 / Akt activation): did not significantly influence Akt phosphorylation
S6RP phosphorylation (mTORC1 activation) (mTORC1 / Akt activation): altered S6RP phosphorylation
CHOP expression, time course (CHOP): induced a transient response

B2: L-Asp: enzyme that can degrade extracellular asparagine and also possesses glutaminase activity (protein, UniProt P00805 23-348, looked up)
L-asparaginase 2: LPNITILATGGTIAGGGDSATKSNYTVGKVGVENLVNAVPQLKDIANVKGEQVVNIGSQDMNDNVWLTLAKKINTDCDKTDGFVITHGTDTMEETAYFLDLTVKCDKPVVMVGAMRPSTSMSADGPFNLYNAVVTAADKASANRGVLVVMNDTVLDGRDVTKTNTTDVATFKSVNYGPLGYIHNGKIDYQRTPARKHTSDTPFDVSKLNELPKVGIVYNYANASDLPAKALVDAGYDGIVSAGVGNGNLYKSVFDTLATAAKTGTAVVRSSRVPTGATTQDAEVDDAKYGFVASGTLNPQKARVLLQLALTQTKDPQQIQQIFNQY
4EBP1 phosphorylation (mTORC1 / Akt activation): altered 4EBP1 phosphorylation
Akt phosphorylation (serine 473) / activation (mTORC1 / Akt activation): did not significantly influence Akt phosphorylation
S6RP phosphorylation (mTORC1 activation) (mTORC1 / Akt activation): altered S6RP phosphorylation
CHOP expression, time course (CHOP): lower magnitude compared to COMPOUND-JP
combination effect with COMPOUND-JP on metabolic activity/cell survival (Combination Index) (KO99L cells [4]): potentiate
